Values quoted from earlier work as cited in patent EP3196312B1, “EFFICIENT CONVERSION OF METHYLGLYOXAL INTO HYDROXYACETONE USING NOVEL ENZYMES AND APPLI CATIONS THEREOF” (Metabolic Explorer, priority 2016, dated 2017).

Key:
[1] = target: T1, Escherichia coli YqhD (alcohol dehydrogenase, Uniprot Q46856), wild type, SEQ ID NO: 7 (Escherichia coli, UniProt Q46856); conditions: toward methylglyoxal and NADPH; as cited from WO 2011/012697
T1 sequence (Q46856 1-387): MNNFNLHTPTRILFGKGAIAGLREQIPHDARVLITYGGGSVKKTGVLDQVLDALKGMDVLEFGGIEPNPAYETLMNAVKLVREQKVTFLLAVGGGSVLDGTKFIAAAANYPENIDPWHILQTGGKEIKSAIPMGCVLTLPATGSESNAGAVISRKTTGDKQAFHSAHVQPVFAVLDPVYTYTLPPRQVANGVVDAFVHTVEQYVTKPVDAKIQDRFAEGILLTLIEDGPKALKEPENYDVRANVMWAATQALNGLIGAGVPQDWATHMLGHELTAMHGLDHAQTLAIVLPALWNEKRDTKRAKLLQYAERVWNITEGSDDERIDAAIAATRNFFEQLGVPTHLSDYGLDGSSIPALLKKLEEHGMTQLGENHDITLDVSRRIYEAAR

[2] = target: T2, Escherichia coli YqhD variant YqhD*(G149E), SEQ ID NO: 9 (Escherichia coli, UniProt Q46856, G149E); conditions: toward methylglyoxal and NADPH; as cited from WO 2011/012697
T2 sequence (Q46856 1-387 G149E): T1 sequence (Q46856 1-387)

CC(=O)C=O [methylglyoxal]
Km [1]: 2090 µM | Km [2]: 2920 µM
